Patent US8859535B2, “Hydroxy substituted isoquinolinone derivatives” (Novartis AG, priority 2011, dated 2014)

Assays:
[1] = molecular target: T1, human MDM2 protein (amino acids 2-188) (Homo sapiens, UniProt Q00987); experiment: p53-MDM2 TR-FRET assay (p53-MDM2 Assay 1); assay type: binding; conditions: 1.25 nM MDM2-biotinylated, 10 nM Cy5-p53 peptide; read-out: IC50 (μM) of p53-Hdm2 inhibition (TR-FRET) Assay 1
T1 construct: human MDM2 protein (amino acids 2-188); made in house
Description: (§1) Time Resolved Fluorescence Energy Transfer (TR-FRET) Assay
(§2) The inhibition of p53-MDM2 and p53-MDM4 interactions is measured by time resolved fluorescence energy transfer (TR-FRET). Fluorescence energy transfer (or Foerster resonance energy transfer) describes an energy transfer between donor and acceptor fluorescent molecules. For this assay, human MDM2 protein (amino acids 2-188) and human MDM4 protein (amino acids 2-185), tagged with a C-terminal biotin moiety, are used in combination with a Europium labeled streptavidin (Perkin Elmer, Inc., Waltham, Mass., USA) serving as the donor fluorophore. The p53 derived, Cy5 labeled peptide Cy5-TFSDLWKLL (p53 aa18-26) is the energy acceptor. Upon excitation of the donor molecule at 340 nm, binding interaction between MDM2 or MDM4 and the p53 peptide induces energy transfer and enhanced response at the acceptor emission wavelength at 665 nm. Disruption of the formation of the p53-MDM2 or p53-MDM4 complex due to an inhibitor molecule binding to the p53 binding site of MDM2 or MDM4 results in increased donor emission at 620 nm. The ratiometric FRET assay readout is calculated from the raw data of the two distinct fluorescence signals measured in time resolved mode (fluorescence 665 nm/fluorescence 620 nm×1000).
(§3) After addition of 1.25 nM MDM2-biotinylated or 2.5 nM MDM4-biotinylated (internal preparations), and 0.625 nM Europium labeled streptavidin (Perkin Elmer), the solution is pre-incubated for 15 minutes at room temperature, then 10 nM Cy5-p53 peptide (internal preparation) is added before an incubation at room temperature for 15 minutes prior to reading the plate. For measurement of samples, a Victor II microplate reader (Perkin Elmer) is used with the following settings: Excitation 340 nm, Emission Donor 620 nm and Emission Acceptor 665 nm. IC50 values are calculated by curve fitting using XLfit. If not specified, reagents are purchased from Sigma-Aldrich Chemie GmBH, Buchs, Switzerland.
(§4) This assay was used to evaluate compounds displaying inhibition of p53-MDM2 interaction and p53-MDM4 interaction at IC50s of 0.005 to 50 μM (p53-MDM2 Assay 1 and p53-MDM4 Assay 1, respectively). For selected compounds displaying IC50s between […] on MDM2, a slightly modified assay is used with the following adaptations: 0.1 nM MDM2, 0.1 nM Europium labeled streptavidin and Tecan genios Pro is used as a microplate reader for the fluorescence measurements (p53-MDM2 Assay 2).

[2] = molecular target: T2, human MDM4 protein (amino acids 2-185) (Homo sapiens, UniProt O15151); experiment: p53-MDM4 TR-FRET assay (p53-MDM4 Assay 1); assay type: binding; conditions: 2.5 nM MDM4-biotinylated, 10 nM Cy5-p53 peptide; read-out: IC50 (μM) of p53-Hdm4 inhibition (TR-FRET) Assay 1
T2 construct: human MDM4 protein (amino acids 2-185); made in house
T2 sequence (O15151 2-185): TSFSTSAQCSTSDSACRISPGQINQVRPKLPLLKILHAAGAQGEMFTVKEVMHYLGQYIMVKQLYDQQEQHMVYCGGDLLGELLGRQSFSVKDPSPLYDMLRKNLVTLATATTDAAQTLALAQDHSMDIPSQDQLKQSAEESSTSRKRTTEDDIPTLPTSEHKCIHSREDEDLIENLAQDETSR
Description: as §1, §2, §3, §4

T1 sequence (Q00987 2-188): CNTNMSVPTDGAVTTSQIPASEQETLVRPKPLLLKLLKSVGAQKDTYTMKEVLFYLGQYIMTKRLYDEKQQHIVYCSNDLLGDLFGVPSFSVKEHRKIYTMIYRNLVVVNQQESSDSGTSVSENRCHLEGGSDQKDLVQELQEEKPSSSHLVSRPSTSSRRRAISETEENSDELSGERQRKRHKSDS

| SMILES | IC50 [1] | IC50 [2] |
| --- | --- | --- |
| COc1cc2c(cc1OC(C)C)[C@H](c1ccc(Cl)cc1)N(c1ccc(C(C)(O)c3cccnc3)cn1)C(=O)C2 (stereo partly drawn) [Example 15, (S)-1-(4-Chloro-phenyl)-2-[5-(1-hydroxy-1-pyridin-3-yl-ethyl)-pyridin-2-yl]-7-isopropoxy-6-methoxy-1,4-dihydro-2H-isoquinolin-3-one] | 0.0404 µM | 61.1 µM |
| COc1cc2c(cc1OC(C)C)[C@H](c1ccc(Cl)cc1)N(c1ccc(C(C)(O)C3CN(CC(F)(F)F)C3)cc1)C(=O)C2 (stereo partly drawn) [Example 74, (S)-1-(4-Chloro-phenyl)-2-(4-{1-hydroxy-1-[1-(2,2,2-trifluoro-ethyl)-azetidin-3-yl]-ethyl}-phenyl)-7-isopropoxy-6-methoxy-1,4-dihydro-2H-isoquinolin-3-one] | 0.0179 µM | 18 µM |
| COc1cc2c(cc1OC(C)C)[C@H](c1ccc(Cl)cc1)N(c1ccc(C(C)(O)C3CCN(C(=O)NC(C)C)CC3)cc1)C(=O)C2 (stereo partly drawn) [Example 84, 4-(1-{4-[(S)-1-(4-Chloro-phenyl)-7-isopropoxy-6-methoxy-3-oxo-3,4-dihydro-1H-isoquinolin-2-yl]-phenyl}-1-hydroxy-ethyl)-piperidine-1-carboxylic acid isopropylamide] | 0.0056 µM | 5.91 µM |
| COc1cc2c(cc1OC(C)C)[C@H](c1ccc(Cl)cc1)N(c1ccc([C@](C)(O)C3CCN(C)CC3)cc1)C(=O)C2 (single isomer, unassigned) [Example 95] | 0.129 µM | 49.9 µM |
| COc1cc2c(cc1OC(C)C)[C@H](c1ccc(Cl)cc1)N(c1ccc(C(C)(O)c3ccc(NC(C)=O)cc3)c(F)c1)C(=O)C2 (stereo partly drawn) [Example 28, N-[4-(1-{4-[(S)-1-(4-Chloro-phenyl)-7-isopropoxy-6-methoxy-3-oxo-3,4-dihydro-1H-isoquinolin-2-yl]-2-fluoro-phenyl}-1-hydroxy-ethyl)-phenyl]-acetamide] | 0.0066 µM | 9.7 µM |
| COc1ccc(C(C)(O)c2ccc(N3C(=O)Cc4cc(OC)c(OC(C)C)cc4[C@@H]3c3ccc(Cl)cc3)cc2)cc1 (stereo partly drawn) [Example 5, (S)-1-(4-Chloro-phenyl)-2-{4-[1-hydroxy-1-(4-methoxy-phenyl)-ethyl]-phenyl}-7-isopropoxy-6-methoxy-1,4-dihydro-2H-isoquinolin-3-one] | 0.0082 µM | 10.5 µM |
| COc1cc2c(cc1OC(C)C)[C@H](c1ccc(Cl)cc1)N(c1ccc(C(C)(O)C3CCN(C(=O)C4CC4)CC3)cc1)C(=O)C2 (stereo partly shown) [Example 80] | 0.0052 µM | 5.11 µM |
| COc1ccc(C(C)(O)c2ccc(N3C(=O)Cc4cc(OC)c(OC(C)C)cc4[C@@H]3c3ccc(Cl)cc3)cc2)cn1 (stereo partly drawn) [Example 23, (S)-1-(4-Chloro-phenyl)-2-{4-[1-hydroxy-1-(6-methoxy-pyridin-3-yl)-ethyl]-phenyl}-7-isopropoxy-6-methoxy-1,4-dihydro-2H-isoquinolin-3-one] | 0.0159 µM | 24.7 µM |
| COc1cc2c(cc1OC(C)C)[C@H](c1ccc(Cl)cc1)N(c1ccc(C(C)(O)c3ccn(C)n3)cc1)C(=O)C2 (stereo partly drawn) [Example 14, (S)-1-(4-Chloro-phenyl)-2-{4-[1-hydroxy-1-(1-methyl-1H-pyrazol-3-yl)-ethyl]-phenyl}-7-isopropoxy-6-methoxy-1,4-dihydro-2H-isoquinolin-3-one] | 0.0494 µM | 53.7 µM |
| COc1cc2c(cc1OC(C)C)[C@H](c1ccc(Cl)cc1)N(c1ccc(C(C)(O)C3CCN(C(=O)OC(C)(C)C)CC3)cc1)C(=O)C2 (stereo partly drawn) [Example 42, 4-(1-{4-[(S)-1-(4-Chloro-phenyl)-7-isopropoxy-6-methoxy-3-oxo-3,4-dihydro-1H-isoquinolin-2-yl]-phenyl}-1-hydroxy-ethyl)-piperidine-1-carboxylic acid tert-butyl ester] | 0.0091 µM | 14.9 µM |
| COc1cc2c(cc1OC(C)C)[C@H](c1ccc(Cl)cc1)N(c1ccc([C@@](C)(O)C3CCN(C(C)=O)CC3)cc1)C(=O)C2 (single isomer, unassigned) [Example 53] | 0.0017 µM | 1.62 µM |
| COc1cc2c(cc1OC(C)C)[C@H](c1ccc(Cl)cc1)N(c1ccc(C(C)(O)C3CCOC3)cc1)C(=O)C2 (stereo partly drawn) [Example 48, (S)-1-(4-Chloro-phenyl)-2-{4-[1-hydroxy-1-(tetrahydro-furan-3-yl)-ethyl]-phenyl}-7-isopropoxy-6-methoxy-1,4-dihydro-2H-isoquinolin-3-one] | 0.0432 µM | 44.5 µM |
| COCCOc1cc2c(cc1OC(C)C)[C@H](c1ccc(Cl)cc1)N(c1ccc(C(C)(O)C3CCOCC3)cc1)C(=O)C2 (stereo partly drawn) [Example 145, (S)-1-(4-Chloro-phenyl)-2-{4-[1-hydroxy-1-(tetrahydro-pyran-4-yl)-ethyl]-phenyl}-7-isopropoxy-6-(2-methoxy-ethoxy)-1,4-dihydro-2H-isoquinolin-3-one] | 0.0083 µM | 3 µM |
| COc1cc2c(cc1OC(C)C)[C@H](c1ccc(Cl)cc1)N(c1ccc(C(C)(O)C3CCN(C(=O)OC(C)C)CC3)cc1)C(=O)C2 (stereo partly drawn) [Example 83, 4-(1-{4-[(S)-1-(4-Chloro-phenyl)-7-isopropoxy-6-methoxy-3-oxo-3,4-dihydro-1H-isoquinolin-2-yl]-phenyl}-1-hydroxy-ethyl)-piperidine-1-carboxylic acid isopropyl ester] | 0.0069 µM | 7.54 µM |
| CC(C)Oc1cc2c(cc1OCC(=O)N(C)C)CC(=O)N(c1ccc(C(C)(O)C3CCOCC3)cc1)[C@H]2c1ccc(Cl)cc1 (stereo partly drawn) [Example 149, 2-((S)-1-(4-Chloro-phenyl)-2-{4-[1-hydroxy-1-(tetrahydro-pyran-4-yl)-ethyl]-phenyl}-7-isopropoxy-3-oxo-1,2,3,4-tetrahydro-isoquinolin-6-yloxy)-N,N-dimethyl-acetamide] | 0.0101 µM | 5.53 µM |
| COc1cc2c(cc1OC(C)C)[C@H](c1ccc(Cl)cc1)N(c1ccc(C(C)(O)C3CCN(C(=O)CC#N)CC3)cc1)C(=O)C2 (stereo partly drawn) [Example 88, 3-[4-(1-{4-[(S)-1-(4-Chloro-phenyl)-7-isopropoxy-6-methoxy-3-oxo-3,4-dihydro-1H-isoquinolin-2-yl]-phenyl}-1-hydroxy-ethyl)-piperidin-1-yl]-3-oxo-propionitrile] | 0.0114 µM | 10.8 µM |
| COc1cc2c(cc1OC(C)C)[C@H](c1ccc(Cl)cc1)N(c1ccc(C(C)(O)C3CCNC(=O)C3)cc1)C(=O)C2 (stereo partly drawn) [Example 49, (S)-1-(4-Chloro-phenyl)-2-{4-[1-hydroxy-1-(2-oxo-piperidin-4-yl)-ethyl]-phenyl}-7-isopropoxy-6-methoxy-1,4-dihydro-2H-isoquinolin-3-one] | 0.011 µM | 8.07 µM |
| COc1cc2c(cc1OC(C)C)[C@H](c1ccc(Cl)cc1)N(c1ccc(C(C)(O)C3CCN(C(=O)N(C)C)CC3)cc1)C(=O)C2 (stereo partly drawn) [Example 82, 4-(1-{4-[(S)-1-(4-Chloro-phenyl)-7-isopropoxy-6-methoxy-3-oxo-3,4-dihydro-1H-isoquinolin-2-yl]-phenyl}-1-hydroxy-ethyl)-piperidine-1-carboxylic acid dimethylamide] | 0.0032 µM | 2.9 µM |
| COc1cc2c(cc1OC(C)C)[C@H](c1ccc(Cl)cc1)N(c1ccc(C(C)(O)C3CN(C(=O)CO)C3)cc1)C(=O)C2 (stereo partly drawn) [Example 102, (S)-1-(4-Chloro-phenyl)-2-(4-{1-hydroxy-1-[1-(2-hydroxy-acetyl)-azetidin-3-yl]-ethyl}-phenyl)-7-isopropoxy-6-methoxy-1,4-dihydro-2H-isoquinolin-3-one] | 0.0078 µM | 7.38 µM |
| COc1cc2c(cc1OC(C)C)[C@H](c1ccc(Cl)cc1)N(c1ccc(C(C)(O)C3CCOCC3)cn1)C(=O)C2 (stereo partly drawn) [Example 37, (S)-1-(4-Chloro-phenyl)-2-{5-[1-hydroxy-1-(tetrahydro-pyran-4-yl)-ethyl]-pyridin-2-yl}-7-isopropoxy-6-methoxy-1,4-dihydro-2H-isoquinolin-3-one] | 0.0117 µM | 13.8 µM |
